Data as given in paper PMC8213057, “Targeting ALK2: An Open Science Approach to Developing Therapeutics for the Treatment of Diffuse Intrinsic Pontine Glioma” (Journal of Medicinal Chemistry, 2020).
Values joined by “and” are separate entries in the source; they are usually repeats but may differ in a detail not shown here. Identical values can stand only once.

How the values were obtained:
EPHB2 = target: T1, EPHB2 (Homo sapiens, UniProt P29323); settings: 1 μM; Run 1, Run 2
T1 sequence (P29323 19-1055): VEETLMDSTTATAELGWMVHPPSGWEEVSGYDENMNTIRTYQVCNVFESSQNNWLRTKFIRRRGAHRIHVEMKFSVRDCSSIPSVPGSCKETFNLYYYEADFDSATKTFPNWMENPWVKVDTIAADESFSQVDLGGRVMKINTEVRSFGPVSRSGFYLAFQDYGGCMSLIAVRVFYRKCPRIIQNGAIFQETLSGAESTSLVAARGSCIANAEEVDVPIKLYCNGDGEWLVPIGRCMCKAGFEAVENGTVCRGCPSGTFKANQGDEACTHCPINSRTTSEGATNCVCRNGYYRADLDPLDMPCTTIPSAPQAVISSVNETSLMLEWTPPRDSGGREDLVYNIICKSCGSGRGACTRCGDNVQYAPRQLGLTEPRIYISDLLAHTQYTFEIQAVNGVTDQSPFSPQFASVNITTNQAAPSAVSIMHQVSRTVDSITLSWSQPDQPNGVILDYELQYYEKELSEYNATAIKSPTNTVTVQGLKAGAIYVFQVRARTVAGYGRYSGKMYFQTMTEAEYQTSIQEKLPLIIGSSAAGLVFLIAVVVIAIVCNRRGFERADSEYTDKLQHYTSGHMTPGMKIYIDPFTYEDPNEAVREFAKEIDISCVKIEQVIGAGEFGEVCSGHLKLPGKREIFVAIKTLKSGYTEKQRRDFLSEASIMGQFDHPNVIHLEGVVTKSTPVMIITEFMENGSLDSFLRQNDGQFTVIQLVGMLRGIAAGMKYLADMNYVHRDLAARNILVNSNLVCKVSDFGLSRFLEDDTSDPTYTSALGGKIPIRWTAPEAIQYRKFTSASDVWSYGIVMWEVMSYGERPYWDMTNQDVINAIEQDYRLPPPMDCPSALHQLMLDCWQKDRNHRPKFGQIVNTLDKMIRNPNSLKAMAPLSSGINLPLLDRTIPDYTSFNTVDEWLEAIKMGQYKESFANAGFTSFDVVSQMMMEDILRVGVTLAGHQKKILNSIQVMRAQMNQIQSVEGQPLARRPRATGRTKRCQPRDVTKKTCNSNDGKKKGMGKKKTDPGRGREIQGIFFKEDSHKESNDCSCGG

GLK/MAP4K3 = target: T2, GLK/MAP4K3 (Homo sapiens, UniProt Q8IVH8); settings: 1 μM; Run 1, Run 2
T2 sequence (Q8IVH8 1-894): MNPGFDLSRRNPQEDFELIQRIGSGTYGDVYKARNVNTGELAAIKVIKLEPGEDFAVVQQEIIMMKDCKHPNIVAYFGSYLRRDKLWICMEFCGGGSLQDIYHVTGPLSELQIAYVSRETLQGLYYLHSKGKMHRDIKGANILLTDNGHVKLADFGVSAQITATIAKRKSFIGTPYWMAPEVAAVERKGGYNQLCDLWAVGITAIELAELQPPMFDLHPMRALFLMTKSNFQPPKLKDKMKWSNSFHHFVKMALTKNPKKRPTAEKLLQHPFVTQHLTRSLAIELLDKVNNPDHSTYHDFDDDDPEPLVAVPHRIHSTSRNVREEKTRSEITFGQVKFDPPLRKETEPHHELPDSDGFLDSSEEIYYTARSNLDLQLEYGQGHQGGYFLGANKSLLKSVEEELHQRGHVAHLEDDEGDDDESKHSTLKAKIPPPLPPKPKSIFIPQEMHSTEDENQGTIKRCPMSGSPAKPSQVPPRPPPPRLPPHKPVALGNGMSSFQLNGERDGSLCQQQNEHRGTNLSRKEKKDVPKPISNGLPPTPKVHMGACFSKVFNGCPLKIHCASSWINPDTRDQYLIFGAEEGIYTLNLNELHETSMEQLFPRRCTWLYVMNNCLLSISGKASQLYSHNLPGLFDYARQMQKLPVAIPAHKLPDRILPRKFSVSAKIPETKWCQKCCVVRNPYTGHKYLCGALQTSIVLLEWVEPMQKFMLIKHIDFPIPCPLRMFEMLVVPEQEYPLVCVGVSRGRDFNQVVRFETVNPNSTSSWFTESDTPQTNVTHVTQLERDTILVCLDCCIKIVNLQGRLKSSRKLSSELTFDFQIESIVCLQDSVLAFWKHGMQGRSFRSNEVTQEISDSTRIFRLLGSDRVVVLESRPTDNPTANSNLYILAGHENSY

GRK7 = target: T3, GRK7 (Homo sapiens, UniProt Q8WTQ7); settings: 1 μM; Run 1, Run 2
T3 sequence (Q8WTQ7 1-553): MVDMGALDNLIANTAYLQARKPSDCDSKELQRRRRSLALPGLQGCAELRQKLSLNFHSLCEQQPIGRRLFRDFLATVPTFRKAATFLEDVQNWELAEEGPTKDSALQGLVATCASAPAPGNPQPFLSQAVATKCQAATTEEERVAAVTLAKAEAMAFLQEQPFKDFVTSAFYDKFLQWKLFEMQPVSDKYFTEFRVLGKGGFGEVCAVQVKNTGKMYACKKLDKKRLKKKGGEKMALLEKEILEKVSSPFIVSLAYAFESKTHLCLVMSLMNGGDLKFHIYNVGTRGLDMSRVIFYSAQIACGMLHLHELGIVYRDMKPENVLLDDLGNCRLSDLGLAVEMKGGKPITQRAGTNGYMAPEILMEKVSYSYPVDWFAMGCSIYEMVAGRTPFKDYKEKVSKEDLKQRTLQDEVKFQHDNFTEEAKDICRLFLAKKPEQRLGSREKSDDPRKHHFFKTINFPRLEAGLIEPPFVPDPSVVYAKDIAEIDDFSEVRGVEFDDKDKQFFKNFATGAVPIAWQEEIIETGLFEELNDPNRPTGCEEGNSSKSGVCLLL

MST3/STK24 = MST3/STK24 (Homo sapiens, UniProt Q9Y6E0); settings: 1 μM; Run 1, Run 2
Chain of MST3/STK24 (Q9Y6E0 whole entry): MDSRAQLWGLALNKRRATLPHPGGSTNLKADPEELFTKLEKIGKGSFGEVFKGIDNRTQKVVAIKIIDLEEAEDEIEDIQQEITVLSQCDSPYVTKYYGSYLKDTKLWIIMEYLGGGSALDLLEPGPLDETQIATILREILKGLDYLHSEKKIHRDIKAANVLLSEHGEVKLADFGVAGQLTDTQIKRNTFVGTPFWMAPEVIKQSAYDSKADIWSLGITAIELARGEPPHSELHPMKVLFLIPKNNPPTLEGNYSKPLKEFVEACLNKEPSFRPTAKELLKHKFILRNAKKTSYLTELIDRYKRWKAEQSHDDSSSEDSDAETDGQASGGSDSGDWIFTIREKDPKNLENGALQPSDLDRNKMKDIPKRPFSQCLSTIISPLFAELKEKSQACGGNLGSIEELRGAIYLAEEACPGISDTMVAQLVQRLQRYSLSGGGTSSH

FGFR4 = FGFR4 (Homo sapiens, UniProt P22455); assay: biochemical; settings: read-out: % enzyme activity, 1 μM; Run 1, Run 2
Chain of FGFR4 (P22455 22-802): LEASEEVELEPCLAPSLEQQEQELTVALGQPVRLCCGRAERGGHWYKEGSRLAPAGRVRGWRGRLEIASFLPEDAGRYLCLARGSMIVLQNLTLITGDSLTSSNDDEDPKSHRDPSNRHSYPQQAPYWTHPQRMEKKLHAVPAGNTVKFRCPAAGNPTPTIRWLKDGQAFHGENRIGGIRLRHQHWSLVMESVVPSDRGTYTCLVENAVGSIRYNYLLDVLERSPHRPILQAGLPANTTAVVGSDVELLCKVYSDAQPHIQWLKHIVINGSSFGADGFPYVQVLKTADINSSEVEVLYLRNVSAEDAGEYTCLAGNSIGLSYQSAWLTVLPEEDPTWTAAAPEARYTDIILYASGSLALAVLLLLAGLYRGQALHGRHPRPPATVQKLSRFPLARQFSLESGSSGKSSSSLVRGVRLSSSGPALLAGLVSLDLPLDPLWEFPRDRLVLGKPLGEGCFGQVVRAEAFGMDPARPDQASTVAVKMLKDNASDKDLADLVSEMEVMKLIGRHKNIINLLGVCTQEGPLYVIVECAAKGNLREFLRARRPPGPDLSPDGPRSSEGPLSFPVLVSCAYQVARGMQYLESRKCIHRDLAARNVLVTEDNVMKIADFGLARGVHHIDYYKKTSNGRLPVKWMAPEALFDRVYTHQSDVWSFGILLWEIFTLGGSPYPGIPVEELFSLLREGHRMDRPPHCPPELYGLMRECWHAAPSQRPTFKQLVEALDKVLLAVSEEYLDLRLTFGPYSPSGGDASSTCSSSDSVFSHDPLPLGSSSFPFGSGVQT

IGF1R = IGF1R (Homo sapiens, UniProt P08069); assay: biochemical; settings: read-out: % enzyme activity, 1 μM; Run 1, Run 2
Chain of IGF1R (P08069 31-1367): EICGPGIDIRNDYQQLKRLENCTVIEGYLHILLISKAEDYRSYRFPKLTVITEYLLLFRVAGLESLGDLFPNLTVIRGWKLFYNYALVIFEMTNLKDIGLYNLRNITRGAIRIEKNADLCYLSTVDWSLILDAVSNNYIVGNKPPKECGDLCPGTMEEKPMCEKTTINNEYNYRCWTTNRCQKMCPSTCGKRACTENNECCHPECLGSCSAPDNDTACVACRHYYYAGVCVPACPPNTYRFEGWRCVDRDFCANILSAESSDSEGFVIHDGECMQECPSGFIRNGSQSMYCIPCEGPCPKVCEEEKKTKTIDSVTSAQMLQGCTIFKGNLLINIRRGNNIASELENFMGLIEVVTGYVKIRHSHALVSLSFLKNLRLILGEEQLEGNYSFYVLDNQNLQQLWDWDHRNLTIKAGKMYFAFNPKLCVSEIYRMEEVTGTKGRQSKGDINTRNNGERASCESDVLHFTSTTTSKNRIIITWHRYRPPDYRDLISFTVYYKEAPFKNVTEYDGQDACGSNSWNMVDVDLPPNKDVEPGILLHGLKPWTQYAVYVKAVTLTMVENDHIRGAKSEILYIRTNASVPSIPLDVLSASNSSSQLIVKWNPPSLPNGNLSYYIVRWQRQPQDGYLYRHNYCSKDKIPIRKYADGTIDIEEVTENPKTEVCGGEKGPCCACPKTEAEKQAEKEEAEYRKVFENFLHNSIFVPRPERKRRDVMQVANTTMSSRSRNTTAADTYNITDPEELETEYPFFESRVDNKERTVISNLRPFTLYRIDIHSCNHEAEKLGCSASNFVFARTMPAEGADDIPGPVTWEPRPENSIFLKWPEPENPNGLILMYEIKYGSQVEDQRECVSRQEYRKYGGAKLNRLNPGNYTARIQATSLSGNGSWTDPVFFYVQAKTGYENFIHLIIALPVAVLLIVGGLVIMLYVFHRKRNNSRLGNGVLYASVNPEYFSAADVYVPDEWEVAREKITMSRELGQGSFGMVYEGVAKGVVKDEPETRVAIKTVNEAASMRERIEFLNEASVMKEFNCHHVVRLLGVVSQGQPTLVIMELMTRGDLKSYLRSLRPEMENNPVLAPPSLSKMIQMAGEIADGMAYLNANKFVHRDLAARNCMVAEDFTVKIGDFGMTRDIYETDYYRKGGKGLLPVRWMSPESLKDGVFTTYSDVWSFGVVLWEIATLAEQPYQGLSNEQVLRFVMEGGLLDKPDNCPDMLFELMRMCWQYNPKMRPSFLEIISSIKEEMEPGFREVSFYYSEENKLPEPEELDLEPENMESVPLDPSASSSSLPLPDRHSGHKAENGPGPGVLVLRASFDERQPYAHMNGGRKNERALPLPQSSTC

| SMILES | % enzyme activity at 1 μM (BRAF) | % enzyme activity (EPHB2) | % enzyme activity (GLK/MAP4K3) | % enzyme activity (GRK7) | % enzyme activity (MST3/STK24) | remaining activity at 1 µM (FGFR4) | remaining activity at 1 µM (IGF1R) |
| --- | --- | --- | --- | --- | --- | --- | --- |
| COc1cc(-c2cncc(-c3ccc(N4CCN(C)CC4)cc3)c2C)cc(F)c1C(N)=O [Compound 26a, 2-Fluoro-6-methoxy-4-(4-methyl-5-(4-(4-methylpiperazin-1-yl)phenyl)pyridin-3-yl)benzamide] | 28.8% | 92.89% | 88.16% | 93.81% | 87.91% | 98.2% | 99.2% |
| COc1cc(-c2cncc(-c3ccc(N4C[C@@H](C)N(C)[C@@H](C)C4)cc3)c2C)cc(F)c1C(N)=O [Compound 26c, 2-Fluoro-6-methoxy-4-(4-methyl-5-(4-((3R,5S)-3,4,5-trimethylpiperazin-1-yl)phenyl)pyridin-3-yl)benzamide] | 41.1% and 40.5% | 97.40% | 88.71% | 91.35% | 94.57% | 99.6% | 96.1% |
